Laboratory results reported in PubChem BioAssay (NCI).
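Method: 48-hour compound exposure of cells in 96-well plates, five concentrations, linear interpolation of endpoints. At the GI50, growth is halved. Definition used: TGI = concentration required for complete inhibition of growth.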

What was measured:
Assay in all cases: NCI tumour cell line growth inhibition, 48 h
[1] = test system: 786-0 renal
[2] = test system: A498 renal
[3] = test system: A549 NSCLC
[4] = test system: ACHN renal
[5] = test system: BT-549 breast
[6] = test system: CAKI-1 renal
[7] = test system: CCRF-CEM leukemia
[8] = test system: COLO 205 colon
[9] = test system: DU-145 prostate
[10] = test system: EKVX NSCLC
[11] = test system: HCC-2998 colon
[12] = test system: HCT-116 colon
[13] = test system: HCT-15 colon
[14] = test system: HL-60(TB) leukemia
[15] = test system: HOP-62 NSCLC
[16] = test system: HOP-92 NSCLC
[17] = test system: HS 578T breast
[18] = test system: HT29 colon
[19] = test system: IGROV1 ovarian
[20] = test system: K-562 leukemia
[21] = test system: KM12 colon
[22] = test system: LOX IMVI melanoma
[23] = test system: M14 melanoma
[24] = test system: MALME-3M melanoma
[25] = test system: MCF7 breast
[26] = test system: MDA-MB-231 breast
[27] = test system: MDA-MB-435
[28] = test system: MDA-MB-468 breast
[29] = test system: MOLT-4 leukemia
[30] = test system: NCI-H226 lung
[31] = test system: NCI-H23 lung
[32] = test system: NCI-H460 lung
[33] = test system: NCI-H522 lung
[34] = test system: NCI/ADR-RES ovarian
[35] = test system: OVCAR-3 ovarian
[36] = test system: OVCAR-4 ovarian
[37] = test system: OVCAR-5 ovarian
[38] = test system: OVCAR-8 ovarian
[39] = test system: PC-3 prostate
[40] = test system: RPMI-8226 leukemia
[41] = test system: RXF 393 renal
[42] = test system: SF-268 CNS
[43] = test system: SF-295 CNS
[44] = test system: SF-539 CNS
[45] = test system: SK-MEL-2 melanoma
[46] = test system: SK-MEL-28 melanoma
[47] = test system: SK-MEL-5 melanoma
[48] = test system: SK-OV-3 ovarian
[49] = test system: SN12C renal
[50] = test system: SNB-19 CNS
[51] = test system: SNB-75 CNS
[52] = test system: SR leukemia
[53] = test system: SW-620 colon
[54] = test system: T-47D breast
[55] = test system: TK-10 renal
[56] = test system: U251 CNS
[57] = test system: UACC-257 melanoma
[58] = test system: UACC-62 melanoma
[59] = test system: UO-31 renal

Q: `Cc1ccc(-c2cc(C(=O)N=Nc3c(O)[nH]c4ccc(F)cc34)c3ccccc3n2)cc1` was tested. Which GI50 [1] did it give?
A: The GI50 was 16.6 µM.

Q: What about the TGI [1] of the same compound?
A: Its TGI is 39.1 µM.

Q: What about the GI50 [2] of the same compound?
A: The GI50 was 19 µM.

Q: What about the TGI [2] of the same compound?
A: The TGI was 34.1 µM.

Q: And the GI50 [3]?
A: Its GI50 is 5.21 µM.

Q: What about the TGI [3] of the same compound?
A: Its TGI is 22.6 µM.

Q: And the GI50 [4]?
A: Its GI50 is 12.7 µM.

Q: What about the TGI [4] of the same compound?
A: The TGI was 26 µM.

Q: What about the GI50 [5] of the same compound?
A: Its GI50 is 10.7 µM.

Q: And the TGI [5]?
A: The TGI was 25.7 µM.

Q: And the GI50 [6]?
A: Its GI50 is 12.2 µM.

Q: What about the TGI [6] of the same compound?
A: The TGI was 27.3 µM.

Q: And the GI50 [7]?
A: Its GI50 is 2.11 µM.

Q: And the TGI [7]?
A: Its TGI is over 100 µM.

Q: And the GI50 [8]?
A: The GI50 was 15.7 µM.

Q: What about the TGI [8] of the same compound?
A: Its TGI is 34.5 µM.

Q: And the GI50 [9]?
A: The GI50 was 15.6 µM.

Q: And the TGI [9]?
A: Its TGI is 52.1 µM.

Q: And the GI50 [10]?
A: Its GI50 is 10.8 µM.

Q: And the TGI [10]?
A: Its TGI is 27.4 µM.

Q: What about the GI50 [11] of the same compound?
A: The GI50 was 15.1 µM.

Q: What about the TGI [11] of the same compound?
A: The TGI was 32.7 µM.

Q: What about the GI50 [12] of the same compound?
A: The GI50 was 3.36 µM.

Q: And the TGI [12]?
A: The TGI was 13.8 µM.

Q: What about the GI50 [13] of the same compound?
A: The GI50 was 2.39 µM.

Q: What about the TGI [13] of the same compound?
A: The TGI was 15.3 µM.

Q: And the GI50 [14]?
A: Its GI50 is 15.4 µM.

Q: And the TGI [14]?
A: Its TGI is 54 µM.

Q: And the GI50 [15]?
A: The GI50 was 4.48 µM.

Q: What about the TGI [15] of the same compound?
A: Its TGI is 18.6 µM.

Q: And the GI50 [16]?
A: Its GI50 is 11.5 µM.

Q: And the TGI [16]?
A: The TGI was 30.8 µM.

Q: And the GI50 [17]?
A: Its GI50 is 7.2 µM.

Q: And the TGI [17]?
A: The TGI was 66.3 µM.

Q: And the GI50 [18]?
A: Its GI50 is 5.23 µM.

Q: What about the TGI [18] of the same compound?
A: Its TGI is 19.2 µM.

Q: And the GI50 [19]?
A: Its GI50 is 12.5 µM.

Q: What about the TGI [19] of the same compound?
A: Its TGI is 28.5 µM.

Q: And the GI50 [20]?
A: The GI50 was 4.27 µM.

Q: What about the TGI [20] of the same compound?
A: The TGI was over 100 µM.

Q: And the GI50 [21]?
A: The GI50 was 12.5 µM.

Q: What about the TGI [21] of the same compound?
A: The TGI was 56 µM.

Q: And the GI50 [22]?
A: Its GI50 is 4.1 µM.

Q: And the TGI [22]?
A: The TGI was 16.6 µM.

Q: What about the GI50 [23] of the same compound?
A: The GI50 was 11.6 µM.

Q: And the TGI [23]?
A: Its TGI is 28 µM.

Q: And the GI50 [24]?
A: The GI50 was 8.77 µM.

Q: And the TGI [24]?
A: Its TGI is 21.6 µM.

Q: What about the GI50 [25] of the same compound?
A: The GI50 was 4.6 µM.

Q: What about the TGI [25] of the same compound?
A: Its TGI is 23 µM.

Q: What about the GI50 [26] of the same compound?
A: The GI50 was 3.42 µM.

Q: What about the TGI [26] of the same compound?
A: Its TGI is 13.6 µM.

Q: What about the GI50 [27] of the same compound?
A: The GI50 was 11.1 µM.

Q: What about the TGI [27] of the same compound?
A: Its TGI is 27.8 µM.

Q: What about the GI50 [28] of the same compound?
A: Its GI50 is 9.09 µM.

Q: What about the TGI [28] of the same compound?
A: The TGI was 23.6 µM.

Q: And the GI50 [29]?
A: The GI50 was 4.29 µM.

Q: And the TGI [29]?
A: The TGI was over 100 µM.

Q: And the GI50 [30]?
A: Its GI50 is 17.4 µM.

Q: What about the TGI [30] of the same compound?
A: Its TGI is 37.2 µM.

Q: What about the GI50 [31] of the same compound?
A: Its GI50 is 4.2 µM.

Q: And the TGI [31]?
A: Its TGI is 18.4 µM.

Q: And the GI50 [32]?
A: Its GI50 is 3.96 µM.

Q: What about the TGI [32] of the same compound?
A: The TGI was 19.8 µM.

Q: What about the GI50 [33] of the same compound?
A: Its GI50 is 11.8 µM.

Q: What about the TGI [33] of the same compound?
A: The TGI was 27.5 µM.

Q: And the GI50 [34]?
A: Its GI50 is 3.53 µM.

Q: What about the TGI [34] of the same compound?
A: Its TGI is 27.5 µM.

Q: And the GI50 [35]?
A: The GI50 was 8.75 µM.

Q: What about the TGI [35] of the same compound?
A: The TGI was 30.4 µM.

Q: And the GI50 [36]?
A: The GI50 was 5.68 µM.

Q: What about the TGI [36] of the same compound?
A: Its TGI is 26.6 µM.

Q: And the GI50 [37]?
A: Its GI50 is 10.2 µM.

Q: And the TGI [37]?
A: The TGI was 23.9 µM.

Q: What about the GI50 [38] of the same compound?
A: Its GI50 is 4.72 µM.

Q: What about the TGI [38] of the same compound?
A: The TGI was 33.2 µM.

Q: What about the GI50 [39] of the same compound?
A: The GI50 was 9.49 µM.

Q: What about the TGI [39] of the same compound?
A: The TGI was 91 µM.

Q: What about the GI50 [40] of the same compound?
A: Its GI50 is 10.6 µM.

Q: And the TGI [40]?
A: Its TGI is over 100 µM.

Q: And the GI50 [41]?
A: The GI50 was 7.77 µM.

Q: And the TGI [41]?
A: The TGI was 22.5 µM.

Q: What about the GI50 [42] of the same compound?
A: Its GI50 is 8.11 µM.

Q: And the TGI [42]?
A: The TGI was 49.5 µM.

Q: And the GI50 [43]?
A: The GI50 was 11.4 µM.

Q: And the TGI [43]?
A: Its TGI is 26.1 µM.

Q: And the GI50 [44]?
A: Its GI50 is 2.64 µM.

Q: And the TGI [44]?
A: Its TGI is 8.66 µM.

Q: And the GI50 [45]?
A: The GI50 was 17 µM.

Q: And the TGI [45]?
A: The TGI was 35 µM.

Q: What about the GI50 [46] of the same compound?
A: Its GI50 is 10.2 µM.

Q: What about the TGI [46] of the same compound?
A: The TGI was 22.3 µM.

Q: And the GI50 [47]?
A: The GI50 was 15.2 µM.

Q: And the TGI [47]?
A: The TGI was 30.1 µM.

Q: And the GI50 [48]?
A: The GI50 was 18.9 µM.

Q: What about the TGI [48] of the same compound?
A: The TGI was 38.5 µM.

Q: And the GI50 [49]?
A: The GI50 was 3.73 µM.

Q: What about the TGI [49] of the same compound?
A: The TGI was 16.5 µM.

Q: And the GI50 [50]?
A: The GI50 was 17.3 µM.

Q: What about the TGI [50] of the same compound?
A: Its TGI is 42.3 µM.

Q: And the GI50 [51]?
A: The GI50 was 10.5 µM.

Q: What about the TGI [51] of the same compound?
A: Its TGI is 33.3 µM.

Q: And the GI50 [52]?
A: Its GI50 is 8.17 µM.

Q: And the TGI [52]?
A: The TGI was over 100 µM.

Q: What about the GI50 [53] of the same compound?
A: The GI50 was 5.53 µM.

Q: And the TGI [53]?
A: Its TGI is 26 µM.

Q: What about the GI50 [54] of the same compound?
A: The GI50 was 11 µM.

Q: And the TGI [54]?
A: The TGI was 54.2 µM.

Q: And the GI50 [55]?
A: Its GI50 is 19.6 µM.

Q: And the TGI [55]?
A: The TGI was 36.1 µM.

Q: And the GI50 [56]?
A: The GI50 was 4.09 µM.

Q: What about the TGI [56] of the same compound?
A: The TGI was 18.2 µM.

Q: And the GI50 [57]?
A: The GI50 was 16.7 µM.

Q: What about the TGI [57] of the same compound?
A: Its TGI is 33.5 µM.

Q: What about the GI50 [58] of the same compound?
A: The GI50 was 9.81 µM.

Q: And the TGI [58]?
A: The TGI was 22.7 µM.

Q: And the GI50 [59]?
A: The GI50 was 12.3 µM.

Q: What about the TGI [59] of the same compound?
A: The TGI was 24.8 µM.
